Laboratory results taken from US6410575B1, “Viral treatment” (The Procter & Gamble Company, priority 1999, dated 2002).
Converted amounts (≈) assume the structure as drawn. “And” between values parts separate entries of the source, which are not always exact repeats. Equal entries are not always repeated.

Key:
[1] = tested on: HIV-1 cell line, U937IIIB; assay: Long term in vitro study, U937IIIB; type: cell-based
Method: (§1) Toxicity quantification involves the XTT-based evaluation. Assays were designed to characterize the long term effects of the compounds on virus production and to characterize the longer term effects of the compounds on virus production from chronically HIV infected cells.
(§2) CEM-SS cells chronically infected with HIV isolate, for example SKI (CEM-SKI) are cultured in RPMI1640 tissue culture medium supplemented with 10% fetal bovine serum and antibiotics. […] CEM-SKI or other infected cells with no added drug are used as the control cells.
(§3) Cells are allowed to grow to a density of approximately 1×10^6 cells/ml and are then passaged at a 1:10 dilution. […] The drug concentration in the flask is then increased two-fold and the cells maintained as above.
(§4) The cell populations contain integrated copies of the HIV genome and constitutively produce HIV at relatively high levels or are latently infected and only produce virus after stimulation with phorbol esters, tumor necrosis factor or IL6(U1 and ACH2). Reductions in virus products were observed when quantifying supernatant reverse transcriptase activity.
The results with U937IIIB cells were reported at weekly intervals.
The U937IIIB cell line is viral strain of the U937 cell line.

Cryptococcus neoformans = assay: Anti-fungal activity, MFC (NCCLS M-27A based); type: cell-based
Method: (§5) It was active against Cryptococcus neoformans and Curvularia lunata. The cidal activity for the C. neoformans is high enough that it is clear […] against this yeast. This test was conducted using a method based upon NCCLS reference method M-27A published in 1997. Solvent, medium and growth controls were set-up with the tests. Once these were read to validate the test performance, the QC fungi were read to insure they had expected results. These steps validated the test system. DMSO was used as a drug-chemical solvent. […] The 90% cut-off is necessary for azoles, which are static and not cidal. The […] or cidal level, was determined by sub-culturing a sample from each tube showing no growth.

HIV-2 virus, CEMROD = assay: In vitro screening test against HIV-2, reverse transcriptase activity; type: cell-based; set-up: Reverse Transcriptase Activity, sample / Reverse Transcriptase Activity, average: unit not given here
From the text: The results of one test are shown below

Curvularia lunata = assay: Anti-fungal activity, MIC (NCCLS M-27A based); type: cell-based
Method: as §5

BVDV = BVDV testing in vitro; type: cell-based, bovine diarrhea virus
From the text: DMSO had no effect, as expected.
BVDV is a bovine diarrhea virus and is a well known surrogate virus for hepatitis C which cannot be cultured in vitro.

HSV-2MS = assay: Herpes simplex testing in vero cells; type: cell-based, herpes simplex virus -2; details: HSV-2MS in vero cells
HEPG2 2.2.15 = assay: Toxicity values in the hepatitis B test; type: cell-based; set-up: Toxicity Values, sample / Toxicity Values, mean: unit not given here
HIV-2 cell line, CEMROD = assay: Long term in vitro study, CEMROD; type: cell-based
Method: as §1, §2, §3, §4
The results with CEMROD cells was reported at weekly intervals.
The CEMROD cell line is a viral strain of the CEMSS cell line.

Compound: NC(=S)Nc1nsc(-c2ccccc2)n1
- virus production (supernatant reverse transcriptase activity) ([1]; 7 μg/ml, day 4): 9368
- virus production (supernatant reverse transcriptase activity) ([1]; 7 μg/ml, day 11): 8889
- virus production (supernatant reverse transcriptase activity) ([1]; 7 μg/ml, day 18): 7566
- virus production (supernatant reverse transcriptase activity) ([1]; 7 μg/ml, day 25): 5781
- virus production (supernatant reverse transcriptase activity) ([1]; 7 μg/ml, day 32): 3414
- virus production (supernatant reverse transcriptase activity) ([1]; 7 μg/ml, day 39): 5346
- virus production (supernatant reverse transcriptase activity) ([1]; 7 μg/ml, day 46): 4085
- virus production (supernatant reverse transcriptase activity) ([1]; 7 μg/ml, day 53): 4832
- virus production (supernatant reverse transcriptase activity) ([1]; 15 μg/ml, day 4): 9710
- virus production (supernatant reverse transcriptase activity) ([1]; 15 μg/ml, day 11): 8025
- virus production (supernatant reverse transcriptase activity) ([1]; 15 μg/ml, day 18): 5435
- virus production (supernatant reverse transcriptase activity) ([1]; 15 μg/ml, day 25): 6064
- virus production (supernatant reverse transcriptase activity) ([1]; 15 μg/ml, day 32): 2479
- virus production (supernatant reverse transcriptase activity) ([1]; 15 μg/ml, day 39): 4377
- virus production (supernatant reverse transcriptase activity) ([1]; 15 μg/ml, day 46): 3867
- virus production (supernatant reverse transcriptase activity) ([1]; 15 μg/ml, day 53): 3510
- virus production (supernatant reverse transcriptase activity) ([1]; 30 μg/ml, day 4): 9549
- virus production (supernatant reverse transcriptase activity) ([1]; 30 μg/ml, day 11): 7639
- virus production (supernatant reverse transcriptase activity) ([1]; 30 μg/ml, day 18): 3551
- virus production (supernatant reverse transcriptase activity) ([1]; 30 μg/ml, day 25): 4611
- virus production (supernatant reverse transcriptase activity) ([1]; 30 μg/ml, day 32): 1855
- virus production (supernatant reverse transcriptase activity) ([1]; 30 μg/ml, day 39): 2410
- virus production (supernatant reverse transcriptase activity) ([1]; 30 μg/ml, day 46): 1550
- virus production (supernatant reverse transcriptase activity) ([1]; 30 μg/ml, day 53): 1819
- anti-fungal activity in vitro (Cryptococcus neoformans): active
- MFC (Cryptococcus neoformans; cidal level, read-out: MFC): 32 µg/mL (≈ 135 µM)
- % virus control (HIV-2 virus, CEMROD; 0.32 μg/ml): 113.2%
- Reverse Transcriptase Activity, average (HIV-2 virus, CEMROD; 0.32 μg/ml): 5451
- Reverse Transcriptase Activity, sample (HIV-2 virus, CEMROD; 0.32 μg/ml): 4664 and 6972 and 4717
- % virus control (HIV-2 virus, CEMROD; 1 μg/ml): 95.5%
- Reverse Transcriptase Activity, average (HIV-2 virus, CEMROD; 1 μg/ml): 4601
- Reverse Transcriptase Activity, sample (HIV-2 virus, CEMROD; 1 μg/ml): 4005 and 4407 and 5392
- % virus control (HIV-2 virus, CEMROD; 1.0 μg/ml): 66.6%
- Reverse Transcriptase Activity, average (HIV-2 virus, CEMROD; 1.0 μg/ml): 3208
- Reverse Transcriptase Activity, sample (HIV-2 virus, CEMROD; 1.0 μg/ml): 3001 and 3077 and 3547
- % virus control (HIV-2 virus, CEMROD; 3.2 μg/ml): 74.9%
- Reverse Transcriptase Activity, average (HIV-2 virus, CEMROD; 3.2 μg/ml): 3606
- Reverse Transcriptase Activity, sample (HIV-2 virus, CEMROD; 3.2 μg/ml): 4166 and 3318 and 3334
- % virus control (HIV-2 virus, CEMROD; 32 μg/ml): 36.4%
- Reverse Transcriptase Activity, average (HIV-2 virus, CEMROD; 32 μg/ml): 1753
- Reverse Transcriptase Activity, sample (HIV-2 virus, CEMROD; 32 μg/ml): 1832 and 1550 and 1876
- % virus control (HIV-2 virus, CEMROD; 100 μg/ml): 1.2%
- Reverse Transcriptase Activity, average (HIV-2 virus, CEMROD; 100 μg/ml): 57
- Reverse Transcriptase Activity, sample (HIV-2 virus, CEMROD; 100 μg/ml): 72 and 48 and 52
- anti-fungal activity in vitro (Curvularia lunata): active
- MIC (Curvularia lunata; growth inhibited or reduced at least 90%, read-out: MIC): 0.03 µg/mL (≈ 0.127 µM)
- Antiviral Index (AI), TC50/IC50 (BVDV; first test): greater than 4000
- Antiviral Index (AI), TC50/IC50 (BVDV; second screening test): 1000.4
- TI or therapeutic index (HSV-2MS): > 1.3
- % cell control (HEPG2 2.2.15; 0.64 μg/ml): 92.3%
- Toxicity Values, mean (HEPG2 2.2.15; 0.64 μg/ml): 1.021
- Toxicity Values, sample (HEPG2 2.2.15; 0.64 μg/ml): 0.985 and 0.999 and 1.079
- % cell control (HEPG2 2.2.15; 2 μg/ml): 83.0%
- Toxicity Values, mean (HEPG2 2.2.15; 2 μg/ml): 0.919
- Toxicity Values, sample (HEPG2 2.2.15; 2 μg/ml): 0.881 and 0.959 and 0.916
- % cell control (HEPG2 2.2.15; 6.4 μg/ml): 95.6%
- Toxicity Values, mean (HEPG2 2.2.15; 6.4 μg/ml): 1.058
- Toxicity Values, sample (HEPG2 2.2.15; 6.4 μg/ml): 0.940 and 1.218 and 1.015
- % cell control (HEPG2 2.2.15; 20 μg/ml): 84.2%
- Toxicity Values, mean (HEPG2 2.2.15; 20 μg/ml): 0.932
- Toxicity Values, sample (HEPG2 2.2.15; 20 μg/ml): 0.966 and 0.921 and 0.909
- % cell control (HEPG2 2.2.15; 64 μg/ml): 89.5%
- Toxicity Values, mean (HEPG2 2.2.15; 64 μg/ml): 0.991
- Toxicity Values, sample (HEPG2 2.2.15; 64 μg/ml): 0.962 and 1.037 and 0.973
- % cell control (HEPG2 2.2.15; 200 μg/ml): 76.7%
- Toxicity Values, mean (HEPG2 2.2.15; 200 μg/ml): 0.849
- Toxicity Values, sample (HEPG2 2.2.15; 200 μg/ml): 0.818 and 0.928 and 0.800
- TC50 (HEPG2 2.2.15; HEPG2 2.2.15): > 200 µg/mL
- TC50 (HEPG2 2.2.15; HEPG2 2.2.15, replicate experiment): > 200 µg/mL
- virus production (supernatant reverse transcriptase activity) (HIV-2 cell line, CEMROD; 7 μg/ml, day 4): 6593
- virus production (supernatant reverse transcriptase activity) (HIV-2 cell line, CEMROD; 7 μg/ml, day 11): 8676
- virus production (supernatant reverse transcriptase activity) (HIV-2 cell line, CEMROD; 7 μg/ml, day 18): 10912
- virus production (supernatant reverse transcriptase activity) (HIV-2 cell line, CEMROD; 7 μg/ml, day 25): 9356
- virus production (supernatant reverse transcriptase activity) (HIV-2 cell line, CEMROD; 7 μg/ml, day 32): 8803
- virus production (supernatant reverse transcriptase activity) (HIV-2 cell line, CEMROD; 7 μg/ml, day 39): 6655
- virus production (supernatant reverse transcriptase activity) (HIV-2 cell line, CEMROD; 7 μg/ml, day 46): 8280
- virus production (supernatant reverse transcriptase activity) (HIV-2 cell line, CEMROD; 7 μg/ml, day 53): 7549
- virus production (supernatant reverse transcriptase activity) (HIV-2 cell line, CEMROD; 15 μg/ml, day 4): 6815
- virus production (supernatant reverse transcriptase activity) (HIV-2 cell line, CEMROD; 15 μg/ml, day 11): 8202
- virus production (supernatant reverse transcriptase activity) (HIV-2 cell line, CEMROD; 15 μg/ml, day 18): 10389
- virus production (supernatant reverse transcriptase activity) (HIV-2 cell line, CEMROD; 15 μg/ml, day 25): 7816
- virus production (supernatant reverse transcriptase activity) (HIV-2 cell line, CEMROD; 15 μg/ml, day 32): 6672
- virus production (supernatant reverse transcriptase activity) (HIV-2 cell line, CEMROD; 15 μg/ml, day 39): 7087
- virus production (supernatant reverse transcriptase activity) (HIV-2 cell line, CEMROD; 15 μg/ml, day 46): 6457
- virus production (supernatant reverse transcriptase activity) (HIV-2 cell line, CEMROD; 15 μg/ml, day 53): 6544
- virus production (supernatant reverse transcriptase activity) (HIV-2 cell line, CEMROD; 30 μg/ml, day 4): 6626
- virus production (supernatant reverse transcriptase activity) (HIV-2 cell line, CEMROD; 30 μg/ml, day 11): 6582
- virus production (supernatant reverse transcriptase activity) (HIV-2 cell line, CEMROD; 30 μg/ml, day 18): 7494
- virus production (supernatant reverse transcriptase activity) (HIV-2 cell line, CEMROD; 30 μg/ml, day 25): 4421
- virus production (supernatant reverse transcriptase activity) (HIV-2 cell line, CEMROD; 30 μg/ml, day 32): 4056
- virus production (supernatant reverse transcriptase activity) (HIV-2 cell line, CEMROD; 30 μg/ml, day 39): 2118
- virus production (supernatant reverse transcriptase activity) (HIV-2 cell line, CEMROD; 30 μg/ml, day 46): 4117
- virus production (supernatant reverse transcriptase activity) (HIV-2 cell line, CEMROD; 30 μg/ml, day 53): 4779
